# Reference: US20230374025A1, “FGFR INHIBITOR COMPOUND AND USE THEREOF” (SHENZHEN KANGSU PHARMACEUTICAL TECHNOLOGY CO., LTD., priority 2021, published 2023)
# What was measured:
# Assay type in all cases: biochemical
# [1] = biological target: T1, VEGFR2 (Homo sapiens, UniProt P35968); assay: Assay I: VEGFR2 kinase inhibition (HTRF KinEASE-TK); settings: ATP 5 μM, substrate TK 1 μM
# T1 construct: purchased Carna 08-191
# Protocol: (§1) Assay I: Determination of Inhibitory Activity Against FGFR Mutants
# (§2) 1. Reagents and Equipment
# (§3) 2.1 Preparation of 1× Kinase Reaction Buffer:
# (§4) 1× Kinase reaction buffer was formulated with 1× volume of 5× kinase reaction buffer and 4× volume of water; 5 mM MgCl2; and 1 mM DTT.
# (§5) 2.3 Screening of Compounds:
# (§6) 1. Diluting a compound 4-fold in a dilution plate with DMSO, with a starting compound concentration of 2 mM.
# (§7) 2. Diluting the compound 40-fold into 1× kinase reaction buffer and shaking it on a shaker for 20 minutes.
# 3. Formulating 2×FGFR1 V561M/FGFR2 V564F/FGFR3 K650E/VEGFR2 with 1× of enzyme reaction buffer.
# 4. Adding 2 μl FGFR1 V561M/FGFR2 V564F/FGFR3 K650E/VEGFR2 kinase (formulated in step 3) to each well of the reaction plate.
# (§8) 5. Adding 1 μl of the compound diluted in buffer to each well, sealing the plate with a sealing membrane and centrifuging the plate at 1000 g for 30 seconds and leaving it at room temperature for 10 minutes.
# (§9) 6. Formulating 2.5×TK-substrate-biotin and ATP mixture with 1× enzyme reaction buffer and adding 2 μl of K-substrate-biotin/ATP mixture to the reaction plate.
# (§10) 7. Sealing the plate with a sealing membrane and centrifuging the plate at 1000 g for 30 seconds and allowing it to react at room temperature for 50 minutes.
# (§11) 8. Formulating 4× Sa-XL 665 (250 nM) with HTRF assay buffer.
# (§12) 9. Adding 5 μl Sa-XL 665 and 5 μl TK-Antibody-Cryptate to each well, centrifuging it at 1000 g for 30 seconds, and allowing it to react for 1 hour at room temperature.
# (§13) 10. Reading fluorescence signals at 615 nm (Cryptate) and 665 nm (XL665) with Biotek.
# (§14) 3.1 Calculation of the ratio for each well: the ratio was calculated as 665/615 nm.
# (§15) 3.3 Calculation of IC50 and plotting of inhibition curves for the compounds.
# (§16) The IC50 (half inhibition concentration) of a compound was obtained using the following non-linear fitting equation, wherein data analysis was performed using Graphpad 6.0 software.
# (§17) Y=Bottom+(Top−Bottom)/(1+10^((Log IC50−X)*Hill Slope)) • X: log value of compound concentration; and Y: inhibition rate (% inh)
# (§18) 3.4 Validation of Results
# (§19) Data were exported from Envision and analyzed manually. The ratios were converted to inhibition rates and IC50 was calculated by Prism GraphPad 6.0 from the inhibition rates. IC50 was calculated again by the ratios to verify accuracy of the results.
# Positive control IC50 was within 3 times of the average value
# [2] = biological target: T2, FGFR1 V561M (Homo sapiens, UniProt P11362, V561M); assay: Assay I: inhibitory activity against FGFR mutants (HTRF KinEASE-TK); settings: ATP 5 μM, substrate TK 1 μM
# T2 construct: purchased Signalchem F04-13G
# Protocol: as §1, §2, §3, §4, §5, §6, §7, §8, §9, §10, §11, §12, §13, §14, §15, §16, §17, §18, §19
# [3] = biological target: T3, FGFR2 V564F (Homo sapiens, UniProt P21802, V564F); assay: as above; settings: ATP 10 μM, substrate TK 1 μM
# T3 construct: purchased Signalchem F05-12FG
# Protocol: as §1, §2, §3, §4, §5, §6, §7, §8, §9, §10, §11, §12, §13, §14, §15, §16, §17, §18, §19
# [4] = biological target: T4, FGFR3 V555M (Homo sapiens, UniProt P22607, V555M); assay: as above; settings: ATP 20 μM, substrate TK 1 μM
# T4 construct: purchased Signalchem F06-12GG
# Protocol: as §1, §2, §3, §4, §5, §6, §7, §8, §9, §10, §11, §12, §13, §14, §15, §16, §17, §18, §19
# T4 sequence (P22607 397-806 V555M limits assumed): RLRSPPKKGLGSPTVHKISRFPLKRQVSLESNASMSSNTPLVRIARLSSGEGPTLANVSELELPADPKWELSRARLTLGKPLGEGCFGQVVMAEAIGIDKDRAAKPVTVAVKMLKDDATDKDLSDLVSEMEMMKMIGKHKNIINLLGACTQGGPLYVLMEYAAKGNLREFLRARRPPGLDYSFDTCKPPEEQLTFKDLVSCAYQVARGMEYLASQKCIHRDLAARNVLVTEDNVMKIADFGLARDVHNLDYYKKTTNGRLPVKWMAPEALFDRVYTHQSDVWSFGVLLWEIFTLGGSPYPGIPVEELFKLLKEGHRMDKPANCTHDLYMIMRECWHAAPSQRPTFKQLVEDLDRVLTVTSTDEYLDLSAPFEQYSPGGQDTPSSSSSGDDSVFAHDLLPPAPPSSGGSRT
# T2 sequence (P11362 22-822 V561M): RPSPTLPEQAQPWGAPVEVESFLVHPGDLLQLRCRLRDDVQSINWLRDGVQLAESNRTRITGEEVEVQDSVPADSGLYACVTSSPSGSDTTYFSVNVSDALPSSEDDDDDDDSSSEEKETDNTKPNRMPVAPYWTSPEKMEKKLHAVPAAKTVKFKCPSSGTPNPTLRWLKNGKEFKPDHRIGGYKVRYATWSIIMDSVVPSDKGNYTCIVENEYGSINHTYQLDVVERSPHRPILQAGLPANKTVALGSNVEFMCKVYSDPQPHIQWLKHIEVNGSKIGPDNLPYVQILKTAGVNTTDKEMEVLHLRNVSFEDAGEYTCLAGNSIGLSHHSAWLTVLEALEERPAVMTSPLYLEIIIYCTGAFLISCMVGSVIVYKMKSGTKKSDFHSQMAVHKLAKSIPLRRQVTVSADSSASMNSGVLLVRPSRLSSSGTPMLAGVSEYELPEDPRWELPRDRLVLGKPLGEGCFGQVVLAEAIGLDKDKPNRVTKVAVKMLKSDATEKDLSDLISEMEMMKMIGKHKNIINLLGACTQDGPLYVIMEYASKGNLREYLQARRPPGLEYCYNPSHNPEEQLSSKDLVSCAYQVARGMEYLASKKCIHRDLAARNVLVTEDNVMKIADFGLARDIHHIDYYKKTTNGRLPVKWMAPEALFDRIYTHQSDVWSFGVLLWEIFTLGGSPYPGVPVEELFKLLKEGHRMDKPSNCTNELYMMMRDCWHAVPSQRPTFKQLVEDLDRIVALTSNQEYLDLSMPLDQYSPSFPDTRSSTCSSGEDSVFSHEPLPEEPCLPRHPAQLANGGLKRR
# T1 sequence (P35968 20-1356): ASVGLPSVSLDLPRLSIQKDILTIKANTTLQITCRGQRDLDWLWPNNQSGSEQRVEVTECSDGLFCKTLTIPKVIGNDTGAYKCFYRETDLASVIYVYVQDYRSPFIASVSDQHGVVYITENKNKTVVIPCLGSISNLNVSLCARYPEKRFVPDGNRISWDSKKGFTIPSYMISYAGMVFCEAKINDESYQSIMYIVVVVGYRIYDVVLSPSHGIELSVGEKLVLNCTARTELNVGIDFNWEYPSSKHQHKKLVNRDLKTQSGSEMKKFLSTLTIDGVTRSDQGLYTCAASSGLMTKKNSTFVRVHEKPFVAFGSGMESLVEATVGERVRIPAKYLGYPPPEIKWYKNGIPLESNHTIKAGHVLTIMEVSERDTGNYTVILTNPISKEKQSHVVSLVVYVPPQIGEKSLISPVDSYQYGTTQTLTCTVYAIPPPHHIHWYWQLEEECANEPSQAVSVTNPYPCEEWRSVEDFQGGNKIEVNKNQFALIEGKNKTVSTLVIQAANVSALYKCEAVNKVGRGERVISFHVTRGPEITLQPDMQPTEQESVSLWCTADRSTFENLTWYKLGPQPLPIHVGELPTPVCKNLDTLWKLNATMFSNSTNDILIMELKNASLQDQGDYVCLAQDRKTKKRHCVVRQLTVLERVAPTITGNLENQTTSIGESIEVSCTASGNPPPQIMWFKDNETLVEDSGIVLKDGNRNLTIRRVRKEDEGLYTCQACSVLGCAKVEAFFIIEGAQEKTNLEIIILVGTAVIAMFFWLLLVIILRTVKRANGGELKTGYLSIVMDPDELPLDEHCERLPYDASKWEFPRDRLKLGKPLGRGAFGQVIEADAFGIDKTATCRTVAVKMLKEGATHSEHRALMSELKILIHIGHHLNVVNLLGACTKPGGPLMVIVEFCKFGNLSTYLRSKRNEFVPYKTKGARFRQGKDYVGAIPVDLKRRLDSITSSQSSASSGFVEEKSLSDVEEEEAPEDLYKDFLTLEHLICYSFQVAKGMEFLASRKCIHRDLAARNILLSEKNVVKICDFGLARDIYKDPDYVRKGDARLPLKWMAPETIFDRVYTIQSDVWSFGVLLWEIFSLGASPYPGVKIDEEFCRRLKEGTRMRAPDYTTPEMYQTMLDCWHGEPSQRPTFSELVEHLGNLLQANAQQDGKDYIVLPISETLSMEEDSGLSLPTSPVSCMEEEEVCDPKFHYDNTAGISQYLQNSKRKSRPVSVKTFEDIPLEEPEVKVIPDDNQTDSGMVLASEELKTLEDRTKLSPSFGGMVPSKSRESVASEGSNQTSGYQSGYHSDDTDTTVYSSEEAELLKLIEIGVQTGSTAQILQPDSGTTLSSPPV
# T3 sequence (P21802 22-821 V564F): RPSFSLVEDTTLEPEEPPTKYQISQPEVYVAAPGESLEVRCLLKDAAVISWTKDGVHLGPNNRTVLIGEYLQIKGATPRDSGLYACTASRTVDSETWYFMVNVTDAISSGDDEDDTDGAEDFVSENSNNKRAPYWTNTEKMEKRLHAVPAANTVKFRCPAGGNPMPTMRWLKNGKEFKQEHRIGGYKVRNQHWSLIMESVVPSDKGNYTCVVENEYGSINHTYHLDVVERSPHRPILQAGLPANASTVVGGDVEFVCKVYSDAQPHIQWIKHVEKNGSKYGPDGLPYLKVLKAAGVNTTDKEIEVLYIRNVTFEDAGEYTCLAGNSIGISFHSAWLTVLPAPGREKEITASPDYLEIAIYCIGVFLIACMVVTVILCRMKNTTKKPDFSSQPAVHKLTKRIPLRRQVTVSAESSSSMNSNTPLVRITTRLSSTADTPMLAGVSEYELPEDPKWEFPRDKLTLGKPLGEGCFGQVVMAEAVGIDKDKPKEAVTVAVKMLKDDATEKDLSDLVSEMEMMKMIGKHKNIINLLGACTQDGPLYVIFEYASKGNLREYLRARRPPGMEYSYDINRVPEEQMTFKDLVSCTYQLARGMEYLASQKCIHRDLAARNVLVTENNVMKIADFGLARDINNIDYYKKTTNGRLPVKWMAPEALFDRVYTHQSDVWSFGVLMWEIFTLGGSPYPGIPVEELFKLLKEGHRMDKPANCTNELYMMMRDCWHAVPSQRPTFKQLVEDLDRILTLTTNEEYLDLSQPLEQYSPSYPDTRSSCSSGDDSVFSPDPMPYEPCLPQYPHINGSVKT
IC50 [1] [nM],IC50 [2] [nM],IC50 [3] [nM],IC50 [4] [nM],SMILES
49,1.2,0.74,0.21,"COC(=O)N1Cc2nc(-c3n[nH]c4ccc(OC(C)c5c(Cl)cncc5Cl)cc34)[nH]c2C1 (stereo not shown) [Compound 17, Methyl 2-(5-(1-(3,5-dichloropyridin-4-yl)ethoxy)-1H-indazol-3-yl)-4,6-dihydropyrrolo[3,4-d]imidazole-5(1H)-carboxylate]"
19.6,2.2,1.2,–,"CC(Oc1ccc2[nH]nc(-c3nc4c([nH]3)CN(S(=O)(=O)c3cnn(C)c3)C4)c2c1)c1c(Cl)cncc1Cl (stereo not shown) [Compound 18, 5-(1-(3,5-dichloropyridin-4-yl)ethoxy)-3-(5-((1-methyl-1H-pyrazol-4-yl)sulfonyl)-1,4,5,6-tetrahydropyrrolo[3,4-d]imidazol-2-yl)-1H-indazole]"
13.3,1.8,1.7,–,"CC(Oc1ccc2[nH]nc(-c3nc4c([nH]3)CN(S(=O)(=O)c3ccn(C)n3)C4)c2c1)c1c(Cl)cncc1Cl (stereo not shown) [Compound 20, 5-(1-(3,5-dichloropyridin-4-yl)ethoxy)-3-(5-((1-methyl-1H-pyrazol-3-yl)sulfonyl)-1,4,5,6-tetrahydropyrrolo[3,4-d]imidazol-2-yl)-1H-indazole]"
60.5,–,1.3,1.4,"C[C@@H](Oc1ccc2[nH]nc(-c3nc4c([nH]3)CN(C3CCN(S(C)(=O)=O)C3)C4)c2c1)c1c(Cl)cncc1Cl (stereo partly drawn) [Compound 39, 5-((R)-1-(3,5-Dichloropyridin-4-yl)ethoxy)-3-(5-(1-(methylsulfonyl)pyrrolidin-3-yl)-1,4,5,6-tetrahydropyrrolo[3,4-d]imidazol-2-yl)-1H-indazole]"
11.1,–,0.084,0.33,"C[C@@H](Oc1ccc2[nH]nc(-c3nc4c([nH]3)CN(C(=O)CN3CCC(F)C3)C4)c2c1)c1c(Cl)cncc1Cl (stereo partly drawn) [Compound 48, 1-(2-(5-((R)-1-(3,5-Dichloropyridin-4-yl)ethoxy)-1H-indazol-3-yl)-4,6-dihydropyrrolo[3,4-d]imidazol-5(1H)-yl)-2-(3-fluoropyrrolidin-1-yl)ethan-1-one]"
6.7,–,0.017,0.19,"C[C@@H](Oc1ccc2[nH]nc(-c3nc4c([nH]3)CN(C(=O)CN3CCC(C#N)C3)C4)c2c1)c1c(Cl)cncc1Cl (stereo partly drawn) [Compound 49, 1-(2-(2-(5-((R)-1-(3,5-dichloropyridin-4-yl)ethoxy)-1H-indazol-3-yl)-4,6-dihydropyrrolo[3,4-d]imidazol-5(1H)-yl)-2-oxoethyl)pyrrolidine-3-carbonitrile]"
99,–,–,–,"CCN1CCN(c2ccc(Nc3cc(N(C)C(=O)Nc4c(Cl)c(OC)cc(OC)c4Cl)ncn3)cc2)CC1 [Infigratinib, reference compound]"

# The remaining lines, values behind:
SMILES,IC50 [1] [nM],IC50 [2] [nM],IC50 [3] [nM],IC50 [4] [nM]
"CC(Oc1ccc2[nH]nc(-c3nc4c([nH]3)CN(CC3CCN(C)CC3)C4)c2c1)c1c(Cl)cncc1Cl (stereo not shown) [Compound 2, 5-(1-(3,5-dichloropyridin-4-yl)ethoxy)-3-(5-((1-methylpiperidin-4-yl)methyl)-1,4,5,6-tetrahydropyrrolo[3,4-d]imidazol-2-yl)-1H-indazole]",2.6,0.21,0.1,0.05
"CC(Oc1ccc2[nH]nc(-c3nc4c([nH]3)CN(C3CCN(C)CC3)C4)c2c1)c1c(Cl)cncc1Cl (stereo not shown) [Compound 3, 5-(1-(3,5-dichloropyridin-4-yl)ethoxy)-3-(5-(1-methylpiperidin-4-yl)-1,4,5,6-tetrahydropyrrolo[3,4-d]imidazol-2-yl)-1H-indazole]",5.4,0.65,0.25,0.67
"CC(Oc1ccc2[nH]nc(-c3nc4c([nH]3)CN(C3CCN(C)CC3)CC4)c2c1)c1c(Cl)cncc1Cl (stereo not shown) [Compound 4, 2-(5-(1-(3,5-dichloropyridin-4-yl)ethoxy)-1H-indazol-3-yl)-5-(1-methylpiperidin-4-yl)-4,5,6,7-tetrahydro-3H-imidazo[4,5-c]pyridine]",17.6,0.31,0.19,0.16
"CC(Oc1ccc2[nH]nc(-c3nc4c([nH]3)CN(C(=O)C3CCN(C)CC3)C4)c2c1)c1c(Cl)cncc1Cl (stereo not shown) [Compound 6, (2-(5-(1-(3,5-dichloropyridin-4-yl)ethoxy)-1H-indazol-3-yl)-4,6-dihydropyrrolo[3,4-d]imidazol-5(1H)-yl)(1-methylpiperidin-4-yl)ketone]",3.1,0.38,0.11,0.12
"CC(Oc1ccc2[nH]nc(-c3nc4c([nH]3)CN(S(=O)(=O)c3cccnc3)C4)c2c1)c1c(Cl)cncc1Cl (stereo not shown) [Compound 7, 5-(1-(3,5-dichloropyridin-4-yl)ethoxy)-3-(5-(pyridin-3-ylsulfonyl)-1,4,5,6-tetrahydropyrrolo[3,4-d]imidazol-2-yl)-1H-indazole]",42.9,1.6,3.1,4
"CC(Oc1ccc2[nH]nc(-c3nc4c([nH]3)CN(C(=O)[C@@H]3CCNC3)C4)c2c1)c1c(Cl)cncc1Cl (stereo partly drawn) [Compound 9, (2-(5-(1-(3,5-dichloropyridin-4-yl)ethoxy)-1H-indazol-3-yl)-4,6-dihydropyrrolo[3,4-d]imidazol-5(1H)-yl)((R)-pyrrolidin-3-yl)ketone]",5.6,0.41,0.27,0.16
CC(Oc1ccc2[nH]nc(-c3nc4c([nH]3)CN(CCN3CCOCC3)C4)c2c1)c1c(Cl)cncc1Cl (stereo not shown) [Compound 12],14.2,1.2,0.29,0.21
"CC(Oc1ccc2[nH]nc(-c3nc4c([nH]3)CN(C(=O)CN3CCOCC3)C4)c2c1)c1c(Cl)cncc1Cl (stereo not shown) [Compound 13, 1-(2-(5-(1-(3,5-dichloropyridin-4-yl)ethoxy)-1H-indazol-3-yl)-4,6-dihydropyrrolo[3,4-d]imidazol-5(1H)-yl)-2-morpholinoethan-1-one]",5.5,0.46,0.31,0.22
"CC(Oc1ccc2[nH]nc(-c3nc4c([nH]3)CN(C(=O)CN(C)C)C4)c2c1)c1c(Cl)cncc1Cl (stereo not shown) [Compound 14, 1-(2-(5-(1-(3,5-dichloropyridin-4-yl)ethoxy)-1H-indazol-3-yl)-4,6-dihydropyrrolo[3,4-d]imidazol-5(1H)-yl)-2-(dimethylamino)ethan-1-one]",6.1,0.11,0.09,0.03
"CC(Oc1ccc2[nH]nc(-c3nc4c([nH]3)CN(CCO)C4)c2c1)c1c(Cl)cncc1Cl (stereo not shown) [Compound 15, 2-(2-(5-(1-(3,5-dichloropyridin-4-yl)ethoxy)-1H-indazol-3-yl)-4,6-dihydropyrrolo[3,4-d]imidazol-5(1H)-yl)ethan-1-ol]",67,3.6,2,2
"CC(Oc1ccc2[nH]nc(-c3nc4c([nH]3)CN(S(C)(=O)=O)C4)c2c1)c1c(Cl)cncc1Cl (stereo not shown) [Compound 16, 5-(1-(3,5-dichloropyridin-4-yl)ethoxy)-3-(5-(methylsulfonyl)-1,4,5,6-tetrahydropyrrolo[3,4-d]imidazol-2-yl)-1H-indazole]",22.1,0.39,0.22,0.35
